Data: patent US8673857B2, “Long term potentiation with cyclic-GluR6 analogs” (Brown University, priority 2009, dated 2014)
Entries after “also recorded” stand apart in the source; their conditions may differ. Starred links: 1 amine or outer side, 2 acyl side, 3 side chain; linkers in the order of their positions; H or OH if unused. Positions of bridges follow the written chain, without caps; N, C: chain ends. Residues, ends and D or L forms follow the SMILES beside them. Chains are numbered I, II in the order given. No end group written: not given here. X1 = O=C(CCN[*:2])[*:1]; βAla = NCCC(=O)O

What was measured:
NMDA receptor = assay: Whole cell patch recording of isolated NMDA EPSC, CA1 pyramidal neuron in hippocampal slices; conditions: perfusion in presence of NBQX 5 μM and picrotoxin 50 μM, clamped at +40 mV, CN2097 2 μM, APV 50 μM
Description: APV is a selective NMDA receptor antagonist.
(§1) CN 2097 is effective in synaptic plasticity and is able to lower the threshold for LTP induction, as shown FIG. 2. […] Without being bound by any particular theory, it is believed that CN 2097 acts through its ability to specifically interfere with NR2B activity and expression to change the sliding threshold for synaptic plasticity, altering the ratio of NR2A:NR2B. Similarly, antagonism of NR2B has been reported to lower the threshold for synaptic plasticity, such that LTP can be induced in response to a normally impotent stimulation with NMDA agonist. […] The cell voltage was clamped at +40 mV and synaptic responses were recorded.

[1] = test system: WT mouse hippocampal slice; assay: LTP in WT mouse hippocampal slice, one sub-threshold HFS (fEPSP slope)
Method: FIG. 6 presents data from a WT mouse adult hippocampal slice. An arrow indicates the time point at which one sub-threshold High Frequency Stimuli (HFS, 100 pulse in 1 second every 10 ms, 100 Hz) was applied. The white box indicates the treatment with CN2097 2 μM.
(§2) Ube3a deficient (“AS”) mice were developed previously (Jiang, Y. H. et al. Mutation of the Angelman ubiquitin ligase in mice causes increased cytoplasmic p53 and deficits of contextual learning and long-term potentiation. Neuron 21, 799-811 (1998)), were obtained through the Jackson Laboratory. Mice were bred on a 129S7 background. To obtain heterozygous mice lacking the Ube3a gene maternally (m−/p+), we crossed a heterozygous female mouse (m−/p+) with a wild-type male mouse (m+/p+). Wild type (WT) littermates (m+/p+) were used as controls.

[2] = test system: mTOR, S6 and AKT expression pathways; assay: Western blots of in vivo injected retinas, SH-SY5Y neuroblastomas and primary cerebellar granule neurons; type: cell-based
Description: Additionally, upregulation of CaMKII, an NMDAR-PSD-95 associated protein, is believed to be associated with synaptic plasticity. Biochemical analyses using western blots of in vivo injected retinas, cultured SH-SY5Y neuroblastomas and primary cultured mouse cerebellar granule neurons (CGN) was undertaken. Left and right eyes were given in vivo injections of phosphate buffered saline (PBS), NMDA, NMDA with CN 2097 and NMDA with CN5135, the retinas were then removed and lysed. CGNs were stimulated by a paradigm designed to mimic synaptic stimulation ([…] in ACSF) and SH-SY5Y cells were activated by nerve growth factor (NGF 50 ng/ml). […] Additionally CN2097 increased the expression CREB, which is also neuroprotective. Also observed were increases in levels of PSD-95.
CN2097 (2 μM) was tested after injection into eyes/retinas (lower left panel) applied to cell cultures for 5-30 minutes concurrently with either a synaptic stimulation and nerve growth factor (NGF) 50 ng/ml. CN2097 saw increased ERK, AKT1/2, p-S6K, p-S6, p-ERK, p-p38, p-CREB and PSD-95. Additionally, CN2097 (2 μM) inhibited p-JNK. CN2097S (szeto sequence used instead of Pol-Arginine) and CN5135 (2, 10 and […]), a structural analogue of CN2097 with disruptive alanine substitutions at the 0 and −2 ring positions (binding domain) were used a negative controls whilst tat-NR2B9c (TAT, 2 μM) was used as a positive control.

[3] = test system: Schaffer Collateral-CA1 synapse; assay: Sub-threshold LTP induction at Schaffer Collateral-CA1 synapse (fEPSP); set-up: species or system adult Wistar rat; conditions: for LTP induction with sub-threshold protocol: CN2097 2 μM, low intensity 1 second 100 Hz HFS that normally fails to induce LTP
Description: It would normally induce no increase in baseline fEPSP responses (lower line).
as §1

retinal ganglion cells = assay: NMDA-induced ganglion cell death in the rat retina, intravitreal injection; type: in vivo
Method: Rat eyes were given an intravitreal injection containing 20 nmol of NMDA with 3 nmol CN2097 being co-administered or injected following NMDA insult at 1, 2 or 6 hrs. Retinal ganglion cell survival was assessed by counting fluorogold-labeled cells In an defined area (between 2 and 3 mm) from the center of the optic nerve head of each retina and compared with untreated (control) retinas.
Tests included 20 nmol NMDA vs 1.2 nmol CN2097/20 nmol NMDA.

[4] = Uptake into the brain post i.v.; type: in vivo; conditions: hippocampus, cerebellum, periventricular nucleus of the hypothalmus, deep cerebellar nuclei, sub-cortex, retina
Description: In addition uptake into the deep cerebellar nuclei, in the sub-cortex and the retina are noted.

[5] = test system: AS mouse (Ube3am−/p+) hippocampal slices; assay: LTP in AS mouse (Ube3am-/p+) hippocampal slice, three trains of HFS; conditions: CN2097 2 μM superfused 20-50 minutes, three trains of HFS 10 seconds apart at 40 minutes
Method: Then CN2097 2 μM was superfused from 20-50 minutes. The arrow at 40 minutes indicates three trains of High Frequency Stimuli 10 seconds apart. The HFS is 100 pulses in 1 second with an interpulse interval of 10 ms, i.e. 100 Hz. […] In AS mice this stimulation is normally unable to induce LTP (FIG. 8.). At 90-100 minutes the averaged response was 159.8+/−1.1%, n=7.
as §2

retina and hippocampus = assay: Excitotoxic studies with lethal doses of NMDA
Description: (§3) Using Fmoc-based protocols, a series of peptide ligands were synthesized that complement the PDZ-binding domain of PSD-95 with the criteria of being membrane permeable, resistant to protease activity and biologically active. The peptide KNYKKTEV, which codes for the CRIPT PDZ-3 binding motif, was cyclized between the valine (V) and threonine (T) residues via beta-alanine linkage and either myristylated (CN2180) or linked to a poly-arginine tail (CN2097; FIG. 1) to enhance its diffusion and uptake capacity by neurons in intact tissues. Binding specificity of CN2180 was tested against a PDZ-domain array consisting of 96 distinct His-tagged PDZ domains purified and spotted on a gridded nylon membrane. […] CN 2097 acts as competitive ligand for this binding site and as such is able to disrupt the normal binding of NR2B receptors to the PSD. Also, it is believed that CN2097 disrupts NR2B downstream signaling by displacing signaling effectors attached directly or indirectly to the NR2B/PSD-95 signaling complex including CaMKII. […] Without being bound by any particular theory, this effect is believed due to the disruption of apoptotic and necrotic cell signaling pathways that propagate the cell death signal.

Human plasma half-life = type: in vitro ADME
PI3K and AKT signaling = assay: ACPD (mGluR1 agonist) signaling with CN2097 added; type: cell-based; conditions: CN2097 added to ACPD
Method: ACPD, an agonist of mGluR1, when CN2097 is added leads to an enhancement of PI3K and AKT signaling.

NR2B NMDAR subunit = assay: Electrophysiological and biochemical preliminary studies
Description: as §3

PDZ3 domain of PSD-95 = target: T1, PDZ3 domain of PSD-95 (Homo sapiens, UniProt P78352); assay: PDZ-domain array of 96 His-tagged PDZ domains; type: binding
T1 construct: His
T1 sequence (P78352 313-393 limits assumed): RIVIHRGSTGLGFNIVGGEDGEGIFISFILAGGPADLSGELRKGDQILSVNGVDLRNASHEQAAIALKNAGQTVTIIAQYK
Description: as §3

[6] = target: T2, PDZ1-PDZ2 domains of PSD-95 (Homo sapiens, UniProt P78352); assay: PDZ-domain array of 96 His-tagged PDZ domains; type: binding
T2 construct: His
T2 sequence (P78352 65-246 limits assumed): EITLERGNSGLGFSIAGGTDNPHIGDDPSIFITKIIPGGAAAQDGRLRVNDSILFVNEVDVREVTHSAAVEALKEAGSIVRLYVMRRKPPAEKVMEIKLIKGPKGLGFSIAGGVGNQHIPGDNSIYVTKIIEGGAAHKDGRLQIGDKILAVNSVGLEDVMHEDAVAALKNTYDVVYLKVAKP
Description: as §3

[7] = test system: PDZ domains of other MAGUKS, MUPP1, S-SCAM, Shank and spinophilin; assay: PDZ-domain array of 96 His-tagged PDZ domains; type: binding
Description: as §3

N[C@@H](CCCP(=O)(O)O)C(=O)O [APV, reference compound]
effect on pharmacologically isolated NMDA EPSC (NMDA receptor): abolished the EPSC

CC(C)[C@H](NC(=O)[C@@H]1CCC(=O)NCCC(=O)NCCCC[C@H](NC(=O)[C@H](CCCCN)NC(=O)[C@H](Cc2ccc(O)cc2)NC(=O)[C@H](CC(N)=O)NC(=O)[C@H](CCCCN)NC(=O)[C@@H](N)CSSC[C@H](N)C(=O)N[C@@H](CCCNC(=N)N)C(=O)N[C@@H](CCCNC(=N)N)C(=O)N[C@@H](CCCNC(=N)N)C(=O)N[C@@H](CCCNC(=N)N)C(=O)N[C@@H](CCCNC(=N)N)C(=O)N[C@@H](CCCNC(=N)N)C(=O)N[C@@H](CCCNC(=N)N)C(N)=O)C(=O)N[C@@H]([C@@H](C)O)C(=O)N1)C(=O)O [CN2097] (I: H-CKNYKKTEV-OH / II: H-CRRRRRRR-NH2; disulfide I:1-II:1; linker I:6-I:8 via X1)
LTP, % of baseline fEPSP slope ([1]; 2 μM treatment combined with one sub-threshold HFS (HFS1, 100 Hz)): 187.2+/−1.034% | effect of compound alone upon baseline responses ([1]; CN2097 2 μM, between 20 and 40 minutes, before HFS): no significant observed effect | expression of CREB [2]: increased | levels of PSD-95 [2]: increases | p-JNK ([2]; 2 μM): inhibiting; also recorded: inhibited | total protein expression and phosphorylation state of pro-survival signaling proteins (CamKII, ERK, AKT1/2, p-S6K, p-S6, p-ERK, p-p38, p-CREB, PSD-95) ([2]; 2 μM, 5-30 minutes, with synaptic stimulation or NGF 50 ng/ml, or injected retinas): increases in both total protein expression and phosphorylation state; also recorded: increased | duration of induced LTP ([3]; 2 μM CN 2097, 1 second 100 Hz HFS): over 60 minutes | LTP induction with sub-threshold protocol [3]: results in LTP induction | LTP induction with sub-threshold protocol ([3]; listed as CN 2097): induced a significant LTP | NMDA-induced TUNEL-labeling in the retina (retinal ganglion cells; 20 nmol NMDA vs 1.2 nmol CN2097/20 nmol NMDA): blocked | ganglion cell death with post-treatment (retinal ganglion cells; 20 nmol NMDA, 3 nmol CN2097 co-administered or injected 1, 2 or 6 hrs after NMDA): neuroprotective effects | NMDA-induced poly(ADP-ribosyl)ation-immunoreactivity (PAR-IR) (retinal ganglion cells; matched paired retinas, 20 nmol NMDA): dose dependent attenuation | NMDA-induced ganglion cell loss, fluorogold retrograde labeling (retinal ganglion cells; viewed 14 days post insult): provided protection | NMDA-induced loss of plasma membrane selectivity (LPMS; necrosis) (retinal ganglion cells; vs time matched NMDA-treated retina): blocked | uptake into the brain [4]: uptake into the brain has also been noted | LTP, averaged response at 90-100 minutes [5]: 159.8+/−1.1% | neuroprotection against lethal doses of NMDA (retina and hippocampus): neuroprotective | half-life (Human plasma half-life): ~48 min | effect on pharmacologically isolated NMDA EPSC (NMDA receptor): lack of effect | effect on pharmacologically isolated NMDA EPSC (NMDA receptor; listed as CN 2097): does not act as an antagonist | PI3K and AKT signaling with ACPD (PI3K and AKT signaling): enhancement | specificity toward the NR2B NMDAR subunit (NR2B NMDAR subunit): demonstrates specificity

CN2180: peptide KNYKKTEV cyclized between valine and threonine via beta-alanine linkage, myristylated (bridge (positions not given here) via βAla; also: cyclized between valine and threonine via beta-alanine linkage, myristylated, site not given here)
binding to PDZ3 domain of PSD-95 (PDZ3 domain of PSD-95): moderate binding | binding specificity to PDZ1-PDZ2 domains of PSD-95 [6]: high specificity | binding to PDZ domains of other MAGUKS and other PDZ-containing proteins [7]: did not bind
